Assay [1] has as its target T1, Cox-1 (Homo sapiens, UniProt P23219).
T1 construct: human U-937 cells (which specifically express COX-1); endogenous in cells; host or cells: human U-937 cells (whole cells or their microsomes)
Briefly: Cox-1 U937 (PGE2 synthesis). It is filed as cell-based. The method, then: Compounds are tested as inhibitors of cyclooxygenase activity in whole cell cyclooxygenase assays. Both of these assays measure prostaglandin E2 synthesis in response to AA, using a radioimmunoassay. Cells used for these assays are human osteosarcoma 143 cells (which specifically express COX-2) and human U-937 cells (which specifically express COX-1). […] For cyclooxygenase assays, osteosarcoma cells are cultured in 1 mL of media in 24-well multidishes (Nunclon) until confluent (1-2 ×10^5 cells/well). U-937 cells are grown in spinner flasks and resuspended to a final density of 1.5×10^6 cells/mL in 24well multidishes (Nunclon). Following washing and resuspension of osteosarcoma and U-937 cells in 1 mL of HBSS, 1 μL of a DMSO solution of test compound or DMSO vehicle is added, and samples gently mixed. All assays are performed in triplicate. […] AA (peroxide-free, Cayman Chemical) is prepared as a 10 mM stock solution in ethanol and further diluted 10-fold in HBSS. […] Control samples are incubated with ethanol vehicle instead of AA. Samples are again gently mixed and incubated for a further 10 min. at 37° C. For osteosarcoma cells, reactions are then stopped by the addition of 100 μL of 1N HCl, with mixing and by the rapid removal of the solution from cell monolayers. For U-937 cells, reactions are stopped by the addition of 100 μL of 1N HCl, with mixing. Samples are then neutralized by the addition of 100 μL of 1N NaOH and PGE2 levels measured by radioimmunoassay. Assay of COX-1 Activity from U937 cell microsomes U 937 cells are pelleted by centrifugation at 500×g for 5 min and washed once with phosphate-buffered saline and repelleted. Cells are resuspended in homogenization buffer consisting of 0.1M Tris-HCl, pH 7.4, 10 mM EDTA, 2 μg/ml leupeptin, 2 μg/ml soybean trypsin inhibitor, 2 μg/ml aprotinin and 1 mM phenyl methyl sulfonyl fluoride. The cell suspension is sonicated 4 times for 10 sec and is centrifuged at 10,000×g for 10 min at 4° C. The supernatant is centrifuged at 100,000×g for 1 hr at 4° C. The 100,000×g microsomal pellet is resuspended in 0.1M Tris-HCl, pH 7.4, 10 mM EDTA to approximately 7 mg protein/ml and stored at -80° C. […] Assays are performed in duplicate in a final volume of 250 μl. Initially, 5 μl of DMSO vehicle or drug in DMSO are added to 20 μl of 0.1M Tris-HCl buffer, pH 7.4 containing 10 mM EDTA in wells of a 96-deepwell polypropylene titre plate. 200 μl of the microsomal preparation are then added and pre-incubated for 15 min at room temperature before addition of 25 μl of […] arachidonic acid in 0.1M Tris-HCl and 10 mM EDTA, pH 7.4. Samples are incubated for 40 min at room temperature and the reaction is stopped by the addition of 25 μl of 1N HCl. Samples are neutralized with 25 μl of 1N NaOH prior to quantitation of PGE2 content by radioimmunoassay (Dupont-NEN or Amersham assay kits). Cyclooxygenase activity is defined as the difference between PGE2 levels in samples incubated in the presence of arachidonic acid and ethanol vehicle. Compounds of the present invention are inhibitors of COX-2 and are thereby useful in the treatment of COX-2 mediated diseases as enumerated above. The activities of the compounds against cyclooxygenase may be seen in the representative results shown below. In the assay, inhibition is determined by measuring the amount of prostaglandin E2 (PGE2) synthesized in the presence of AA, COX-1 or COX-2 and a putative inhibitor. […]

The subject of assay [2] is carrageenan-induced paw edema in rats. Briefly: Rat paw edema assay (carrageenan). Format: in vivo, Male Sprague-Dawley rats. The settings on record: po, 1 hr before carrageenan, paw volume 3 hr after. How it is done: Male Sprague-Dawley rats (150-200 g) are fasted overnight and are given, po, either vehicle (1% methocel or 5% Tween 80) or a test compound. One hr later, a line is drawn using a permanent marker at the level above the ankle in one hind paw to define the area of the paw to be monitored. The paw volume (V0) is measured using a plethysmometer (Ugo-Basile, Italy) based on the principle of water displacement. The animals are then injected subplantarly with 50 μt of 1% carrageenan solution in saline (FMC Corp, Maine) into the paw using an insulin syringe with a 25-gauge needle (i.e. 500 μg carrageenan per paw). Three hr later, the paw volume (V3) is measured and the increases in paw volume (V3 -V0) are calculated. The animals are sacrificed by CO2 asphyxiation and the absence or presence of stomach lesions scored. Data is compared with the vehicle-control values and percent inhibition calculated. All treatment groups are coded to eliminate observer bias.
(In general: The carrageenan paw model is a standard test of acute inflammation.)

The target in assay [3] is T2, Cox-2 (Homo sapiens, UniProt P35354).
T2 construct: active only after incubation of human whole blood with LPS, which induces COX-2; endogenous in cells; host or cells: fresh heparinized human whole blood from volunteers, incubated with LPS
T2 sequence (P35354 18-604): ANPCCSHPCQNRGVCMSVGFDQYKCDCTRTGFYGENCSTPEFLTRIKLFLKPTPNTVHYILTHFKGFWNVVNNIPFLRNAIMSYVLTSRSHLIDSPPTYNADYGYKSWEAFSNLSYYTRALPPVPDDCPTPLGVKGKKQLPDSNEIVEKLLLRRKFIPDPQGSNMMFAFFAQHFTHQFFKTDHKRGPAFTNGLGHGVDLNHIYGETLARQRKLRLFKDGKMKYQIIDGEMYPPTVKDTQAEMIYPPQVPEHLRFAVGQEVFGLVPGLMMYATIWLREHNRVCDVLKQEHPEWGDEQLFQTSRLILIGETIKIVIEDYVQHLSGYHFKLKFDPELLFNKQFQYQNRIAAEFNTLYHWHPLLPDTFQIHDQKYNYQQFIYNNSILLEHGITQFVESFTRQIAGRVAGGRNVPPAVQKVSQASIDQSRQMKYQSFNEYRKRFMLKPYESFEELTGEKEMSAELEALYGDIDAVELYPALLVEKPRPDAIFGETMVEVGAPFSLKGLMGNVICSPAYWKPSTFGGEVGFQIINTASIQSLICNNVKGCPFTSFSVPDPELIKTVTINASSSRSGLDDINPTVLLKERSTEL
In words: Human whole blood assay, COX-2 (LPS-induced PGE2 production). It is filed as cell-based. The note with it: for Selectivity Ratio: Cox-1 U937 IC50 / Cox-2 Whole Blood IC50; for IC50: human whole blood, LPS-induced PGE2, 24 hours at 37° C. From the text:
As well, platelets in whole blood contain a large amount of the COX-1 enzyme. Immediately following blood clotting, platelets are activated through a thrombin-mediated mechanism. This reaction results in the production of thromboxane B2 (TxB2) via activation of COX-1. Thus, the effect of test compounds on TxB2 levels following blood clotting can be examined and used as an index for COX-1 activity. Therefore, the degree of selectivity by the test compound can be determined by measuring the levels of PGE2 after LPS induction (COX-2) and TxB2 following blood clotting (COX-1) in the same assay.
A. COX-2 (LPS-induced PGE2 production)
Fresh blood is collected in heparinized tubes by venipuncture from both male and female volunteers. The subjects have no apparent inflammatory conditions and have not taken any NSAIDs for at least 7 days prior to blood collection. Plasma is immediately obtained from a 2 mL blood aliquot to use as blank (basal levels of PGE2). The remaining blood is incubated with LPS (100 μg/ml final concentration, Sigma Chem, #L-2630 from E. coli; diluted in 0.1% BSA (Phosphate buffered saline) for 5 minutes at room temperature. Five hundred μL aliquots of blood are incubated with either 2μL of vehicle (DMSO) or 2 μL of a test compound at final concentrations varying from […] to 30μM for 24 hours at 37° C. At the end of the incubation, the blood is centrifuged at 12,000×g for 5 minutes to obtain plasma. A 100μL aliquot of plasma is mixed with 400 μL of methanol for protein precipitation. The supernatant is obtained and is assayed for PGE2 using a radioimmunoassay kit (Amersham, RPA#530) after conversion of PGE2 to its methyl oximate derivative according to the manufacturer's procedure. […]

Where only a bound is given, the exact number is not on record here.

T1 sequence (P23219 24-599): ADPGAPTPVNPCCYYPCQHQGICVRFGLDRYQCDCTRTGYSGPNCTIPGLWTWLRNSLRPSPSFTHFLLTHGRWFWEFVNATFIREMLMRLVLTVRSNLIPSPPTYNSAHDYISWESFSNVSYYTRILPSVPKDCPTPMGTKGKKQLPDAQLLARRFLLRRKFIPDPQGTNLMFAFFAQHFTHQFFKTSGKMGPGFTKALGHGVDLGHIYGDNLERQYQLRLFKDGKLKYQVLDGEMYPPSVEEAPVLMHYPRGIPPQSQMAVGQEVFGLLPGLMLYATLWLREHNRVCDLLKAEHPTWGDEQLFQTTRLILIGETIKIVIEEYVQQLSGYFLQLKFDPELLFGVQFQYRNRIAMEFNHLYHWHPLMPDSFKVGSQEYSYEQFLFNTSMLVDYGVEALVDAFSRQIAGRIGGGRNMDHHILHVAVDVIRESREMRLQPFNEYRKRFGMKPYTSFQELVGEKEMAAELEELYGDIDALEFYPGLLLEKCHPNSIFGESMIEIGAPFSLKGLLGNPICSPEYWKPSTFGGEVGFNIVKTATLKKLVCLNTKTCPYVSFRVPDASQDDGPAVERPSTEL

For orientation: IC50 means the concentration that inhibits the measured activity by half. As a reminder, the ED50 is the dose at which the effect has come halfway, by size or by number of responders. A low value points to greater potency. Take `CS(=O)(=O)c1ccc(C2=C(c3ccc(Cl)cn3)C(=O)CC2)cc1` [Example 10, 2-(5-Chloro-2-pyridinyl)-3-(4-(methylsulfonyl)phenyl)-2-cyclopenten-1-one]: in assay [1], the IC50 turned out to be 36000 nM. In assay [2], this compound yielded an ED50 of 2.5 mg/kg. In addition, in assay [3], the “Selectivity Ratio” value turned out to be 78 and it took 460 nM to reach half-maximal inhibition (IC50).

Take `CS(=O)(=O)c1ccc(C2=C(c3cncc(Cl)c3)C(=O)CC2)cc1` [Example 2, 2-(5-Chloropyridin-3-yl)-3-(4-(methylsulfonyl)phenyl)-2-cyclopenten-1-one]: the IC50 in assay [1] was over 100000 nM.

Turning to `CS(=O)(=O)c1ccc(C2=C(c3ccccc3)C(=O)CC2)cc1` [B], the IC50 in assay [1] was 1900 nM. Also, the ED50 in assay [2] came to 10 mg/kg. In addition, in assay [3], the “Selectivity Ratio” value amounted to 10 and it took 190 nM to reach half-maximal inhibition (IC50).

Turning to `CS(=O)(=O)c1ccc(C2=C(c3ccc4cccnc4c3)C(=O)OC2)cc1` [C], the midpoint of inhibition in assay [1], the IC50, lay at 600 nM. For the same compound, in assay [3], the “Selectivity Ratio” value turned out to be 1 and the IC50 came to 590 nM.

`CS(=O)(=O)c1ccc(C2=C(c3ccc(F)cc3)C(=O)CC2)cc1` [A] returned an ED50 in assay [2] of 3 mg/kg. In assay [3], the “Selectivity Ratio” value is recorded as 5 and the IC50 turned out to be 90 nM.

`CS(=O)(=O)c1ccc(C2=C(c3cccnc3)C(=O)CC2)cc1` [Example 1, 3-(4-(Methylsulfonyl)phenyl)-2-(3-pyridinyl)-2-cyclopenten-1-one] gave an IC50 in assay [1] of 30000 nM. The compound also gave an ED50 in assay [2] of 1.7 mg/kg. Besides, in assay [3], the “Selectivity Ratio” value came out at 52 and the IC50 turned out to be 580 nM.

The values above are taken from patent publication US5922742A, “Pyridinyl-2-cyclopenten-1-ones as selective cyclooxygenase-2 inhibitors” (Merck Frosst Canada, priority 1997, dated 1999).
